Target: T1, KRAS 4B G12C protein (Homo sapiens, UniProt P01116, G12C)
T1 construct: This protein contained 188 amino acids in total, including an N-terminal 6-Histidine tag; made in house; host or cells: E. coli BL21
Experiment: In vitro covalent adduct formation (CAF) assay by LC-MS
Format: binding
Conditions: compound 10 μM, protein 5 μM, 22° C., percentage of protein bound by the compound
Summary of the method: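 Recombinant His-TEV-tagged KRAS 4B G12C (residues 1-169, E. coli) at 5 μM in Tris-buffered saline pH 7.4 was incubated with 10 μM compound (4% DMSO) at 22° C. for one hour, sampling over time. Intact-mass LC-MS free:adduct ratios gave % protein bound; duplicates.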

SMILES	CAF (10 minutes/60 minutes) at 10 micromolar: 10 minutes	CAF (10 minutes/60 minutes) at 10 micromolar: 60 minutes
C=CC(=O)N1CCN(c2nc(OC[C@@H]3CCCN3C)nc3c2CN(Cc2ccc(F)cc2Cl)C3)C[C@@H]1CC#N [1-96]	51%	93%
C=CC(=O)N1CCN(c2nc(OC[C@@H]3CCCN3C)nc3c2CN(C(C)c2c(F)cccc2OC)C3)C[C@@H]1CC#N (some centres unmarked) [1-97]	95%	98%
C=CC(=O)N1CCN(c2nc(OC[C@@H]3CCCN3C)nc3c2CN(Cc2c(Cl)cccc2OC)C3)C[C@@H]1C(O)C(F)(F)F (some centres unmarked) [1-98]	0%	1%
C=CC(=O)N1CCN(c2nc(OC[C@@H]3CCCN3C)nc3c2CN(Cc2c(Cl)cccc2OC(F)F)C3)[C@@H](C)C1 [1-99]	0%	6%
C=CC(=O)N1CCN(c2nc(OC[C@@H]3CCCN3C)nc3c2CN(C2CCc4ccccc42)C3)C[C@@H]1CC(F)(F)F (some centres unmarked) [1-100]	0%	5%
C=CC(=O)N1CCN(c2nc(OC[C@@H]3CCCN3C)nc3c2CN(C2CCc4ccccc42)C3)C[C@@H]1CCO (some centres unmarked) [1-101]	0%	1%
C=CC(=O)N1CCN(c2nc(OC[C@@H]3CCCN3C)nc3c2CN(Cc2ccccc2F)C3)C[C@@H]1CC#N [1-102]	89%	96%
C=C(F)C(=O)N1CCN(c2nc(OC[C@@H]3CCCN3C)nc3c2CN(Cc2c(Cl)cccc2OC(F)F)C3)C[C@@H]1CC#N [1-104]	8%	48%
C=CC(=O)N1CCN(c2nc(OC[C@@H]3CCCN3C)nc3c2CN(Cc2c(Cl)cccc2OC(F)F)C3)C[C@H]1C [1-105]	0%/ 0%	0%/ 0%
C=CC(=O)N1CCN(c2nc(OC[C@@H]3CCCN3C)nc3c2CN(C2COc4ccccc42)C3)C[C@@H]1CC#N (some centres unmarked) [1-106]	59%	75%
C=CC(=O)N1CCN(c2nc(OC[C@@H]3CCCN3C)nc3c2CN(Cc2c(Cl)cccc2OC)C3)C[C@@H]1CO [1-107]	0%	3%
C=CC(=O)N1CCN(c2nc(OC[C@@H]3CCCN3C)nc3c2CN(Cc2cccc4[nH]ncc24)C3)C[C@@H]1CC#N [1-108]	84%	97%
C=C(F)C(=O)N1CCN(c2nc(OC[C@@H]3CCCN3C)nc3c2CN(C2CCc4ccccc42)C3)C[C@@H]1CC#N (some centres unmarked) [1-109]	48%	68%
C=CC(=O)N1CCN(c2nc(OCCN3CCOCC3)nc3c2CN(Cc2cc(OC)ccc2C)C3)[C@@H](C)C1 [1-110]	0%/ 0%	0%/ 0%
C=CC(=O)N1CCN(c2nc(OC[C@@H]3CCCN3C)nc3c2CN(C(C)c2c(O)cccc2F)C3)C[C@@H]1CC#N (some centres unmarked) [1-111]	87%	96%
C=CC(=O)N1CCN(c2nc(OC[C@@H]3CCCN3C)nc3c2CN(Cc2c(F)cccc2Cl)C3)C[C@@H]1CC#N [1-112]	98%	99%
C=CC(=O)N1CCN(c2nc(OC[C@@H]3CCCN3C)nc3c2CN(Cc2ncccc2Cl)C3)C[C@@H]1CC#N [1-113]	59%	89%
C=CC(=O)N1C2COCC1CN(c1nc(OC[C@@H]3CCCN3C)nc3c1CN(Cc1cc(OC)ccc1Cl)C3)C2 [1-114]	0%/ 0%	0%/ 0%
C=CC(=O)N1CCN(c2nc(OC[C@@H]3CCCN3C)nc3c2CN(C2CCc4ccccc42)C3)C[C@@H]1CO (some centres unmarked) [1-116]	2%	17%
C=CC(=O)N1CCN(c2nc(OC[C@@H]3CCCN3C)nc3c2CN(C2CCc4ccccc42)C3)C[C@@H]1C(O)C(F)(F)F (some centres unmarked) [1-117]	0%	4%
C=CC(=O)N1CCN(c2nc(OC[C@@H]3CCCN3C)nc3c2CN(C2CCc4ccccc42)C3)C[C@@H]1C(O)C(F)(F)F (some centres unmarked) [1-118]	0%/ 0%	0%/ 0%
C=CC(=O)N1CCN(c2nc(OC[C@@H]3CCCN3C)nc3c2CN(Cc2cnccc2Cl)C3)C[C@@H]1CC#N [1-119]	66%	94%

SMILES	CAF (10 minutes/60 minutes) at 10 micromolar: 10 minutes	CAF (10 minutes/60 minutes) at 10 micromolar: 60 minutes
C=CC(=O)N1CCN(c2nc(OC[C@@H]3CCCN3C)nc3c2CN(C(C)c2ccccc2Cl)C3)C[C@@H]1CC#N (some centres unmarked) [1-120]	57%	74%
C#CC1CN(c2nc(OC[C@@H]3CCCN3C)nc3c2CN(C2CCc4ccccc42)C3)CCN1C(=O)C=C (some centres unmarked) [1-121]	0%	4%
C=CC(=O)N1CCN(c2nc(OC[C@@H]3CCC(=O)N3C)nc3c2CN(C2CCc4ccccc42)C3)C[C@@H]1CC#N (some centres unmarked) [1-122]	21%	57%
C=CC(=O)N1CCN(c2nc(OCCN3CCOCC3)nc3c2CN(Cc2cc(O)ccc2C)C3)[C@@H](C)C1 [1-123]	0%	2%
C=CC(=O)N1C2COCC1CN(c1nc(OC[C@@H]3CCCN3C)nc3c1CN(Cc1cc(O)ccc1Cl)C3)C2 [1-124]	21%	67%
C=CC(=O)N1CCN(c2nc(OC[C@@H]3CCCN3C)nc3c2CN(Cc2c(Cl)cccc2OC)C3)C[C@@H]1CC(F)(F)F [1-125]	0%/ 0%	0%/ 0%
C=C(F)C(=O)N1CCN(c2nc(OC[C@@H]3CCCN3C)nc3c2CN(C2CCCc4cccc(Cl)c42)C3)C[C@@H]1CC#N (stereo partly drawn) [1-126, 2-[(2S)-4-[6-(8-chloro-1,2,3,4-tetrahydronaphthalen-1-yl)-2-{[(2S)-1-methylpyrrolidin-2-yl]methoxy}-5H,7H-pyrrolo[3,4-d]pyrimidin-4-yl]-1-(2-fluoroprop-2-enoyl)piperazin-2-yl]acetonitrile]	53%	88%
C=C(F)C(=O)N1CCN(c2nc(OC[C@@H]3CCCN3C)nc3c2CN(C2CCc4cccc(Cl)c42)C3)C[C@@H]1CC#N (some centres unmarked) [1-127]	64%	95%
C=CC(=O)N1CCN(c2nc(OC[C@@H]3C[C@H](F)CN3C)nc3c2CN(C2CCc4ccccc42)C3)C[C@@H]1CC#N (some centres unmarked) [1-128]	52%	63%
C=CC(=O)N1CCN(c2nc(OCCOC)nc3c2CN(C2CCc4ccccc42)C3)C[C@@H]1CC#N (some centres unmarked) [1-129]	26%	64%
C=CC(=O)N1CCN(c2nc(OCCCN3CCOCC3)nc3c2CN(C2CCc4ccccc42)C3)C[C@@H]1CC#N (some centres unmarked) [1-131]	76%	97%
C=CC(=O)N1CCN(c2nc(OCc3ccccn3)nc3c2CN(C2CCc4ccccc42)C3)C[C@@H]1CC#N (some centres unmarked) [1-132]	24%	68%
C=CC(=O)N1CCN(c2nc(OC[C@@H]3CC(F)(F)CN3C)nc3c2CN(C2CCc4ccccc42)C3)C[C@@H]1CC#N (some centres unmarked) [1-133]	84%	90%
C=CC(=O)N1CCN(c2nc(OCCN3CCOCC3)nc3c2CN(Cc2cc(O)ccc2Cl)C3)C[C@@H]1CC#N [1-134]	98%/ 98%	98%/ 98%
C=CC(=O)N1CCN(c2nc(O)nc3c2CN(C2CCc4ccccc42)C3)C[C@@H]1CC#N (some centres unmarked) [1-135]	0%	7%
C=CC(=O)N1CCN(c2nc(SC)nc3c2CN(C2CCc4ccccc42)C3)C[C@@H]1CC#N (some centres unmarked) [1-136]	16%	56%
C=C(F)C(=O)N1CCN(c2nc(OC[C@@H]3CCCN3C)nc3c2CN(C2CCc4ccccc42)C3)C[C@@H]1CC#N (some centres unmarked) [1-138]	38%	54%
C=C(F)C(=O)N1CCN(c2nc(OC[C@@H]3CCCN3C)nc3c2CN(C2CCc4ccccc42)C3)C[C@@H]1CC#N (some centres unmarked) [1-139]	0%	5%
C=C(F)C(=O)N1CCN(c2nc(OCc3cncn3C)nc3c2CN(C2CCc4ccccc42)C3)C[C@@H]1CC#N (some centres unmarked) [1-140]	0%/ 0%	0%/ 0%
C=CC(=O)N1CCN(c2nc(OC[C@@H]3CCCN3CC(F)(F)F)nc3c2CN(C2CCc4ccccc42)C3)C[C@@H]1CC#N (some centres unmarked) [1-141]	51%	71%
C=CC(=O)N1CCN(c2nc(OCC3CC3)nc3c2CN(C2CCc4ccccc42)C3)C[C@@H]1CC#N (some centres unmarked) [1-142]	7%	36%

Reference: patent US20210292330A1, “PYRROLIDINE-FUSED HETEROCYCLES” (Erasca, Inc., priority 2020, published 2021)
